Experimental data as given in patent publication US12440484B2, “1,3,4-oxadiazole homophthalimide derivative compounds as histone deacetylase 6 inhibitor, and the pharmaceutical composition comprising the same” (Chong Kun Dang Pharmaceutical Corp., priority 2019, dated 2025).

Assays:
HDAC1 = HDAC1 (Homo sapiens (Human), UniProt Q13547); assay: HDAC enzyme activity inhibition (in vitro), HDAC1 Fluorimetric Drug Discovery Assay Kit; type: biochemical; conditions: samples at 100, 1000 and 10000 nM; 37° C. 60 minutes; fluorescence Ex 390, Em 460
HDAC6 human recombinant = HDAC6 human recombinant (Homo sapiens (Human), UniProt Q9UBN7); assay: HDAC enzyme activity inhibition (in vitro), HDAC6 assay; type: biochemical; conditions: samples at 0.1, 1, 10, 100 and 1000 nM; 37° C. 60 minutes; fluorescence Ex 390, Em 460
Sequence of HDAC6 human recombinant (Q9UBN7 whole entry): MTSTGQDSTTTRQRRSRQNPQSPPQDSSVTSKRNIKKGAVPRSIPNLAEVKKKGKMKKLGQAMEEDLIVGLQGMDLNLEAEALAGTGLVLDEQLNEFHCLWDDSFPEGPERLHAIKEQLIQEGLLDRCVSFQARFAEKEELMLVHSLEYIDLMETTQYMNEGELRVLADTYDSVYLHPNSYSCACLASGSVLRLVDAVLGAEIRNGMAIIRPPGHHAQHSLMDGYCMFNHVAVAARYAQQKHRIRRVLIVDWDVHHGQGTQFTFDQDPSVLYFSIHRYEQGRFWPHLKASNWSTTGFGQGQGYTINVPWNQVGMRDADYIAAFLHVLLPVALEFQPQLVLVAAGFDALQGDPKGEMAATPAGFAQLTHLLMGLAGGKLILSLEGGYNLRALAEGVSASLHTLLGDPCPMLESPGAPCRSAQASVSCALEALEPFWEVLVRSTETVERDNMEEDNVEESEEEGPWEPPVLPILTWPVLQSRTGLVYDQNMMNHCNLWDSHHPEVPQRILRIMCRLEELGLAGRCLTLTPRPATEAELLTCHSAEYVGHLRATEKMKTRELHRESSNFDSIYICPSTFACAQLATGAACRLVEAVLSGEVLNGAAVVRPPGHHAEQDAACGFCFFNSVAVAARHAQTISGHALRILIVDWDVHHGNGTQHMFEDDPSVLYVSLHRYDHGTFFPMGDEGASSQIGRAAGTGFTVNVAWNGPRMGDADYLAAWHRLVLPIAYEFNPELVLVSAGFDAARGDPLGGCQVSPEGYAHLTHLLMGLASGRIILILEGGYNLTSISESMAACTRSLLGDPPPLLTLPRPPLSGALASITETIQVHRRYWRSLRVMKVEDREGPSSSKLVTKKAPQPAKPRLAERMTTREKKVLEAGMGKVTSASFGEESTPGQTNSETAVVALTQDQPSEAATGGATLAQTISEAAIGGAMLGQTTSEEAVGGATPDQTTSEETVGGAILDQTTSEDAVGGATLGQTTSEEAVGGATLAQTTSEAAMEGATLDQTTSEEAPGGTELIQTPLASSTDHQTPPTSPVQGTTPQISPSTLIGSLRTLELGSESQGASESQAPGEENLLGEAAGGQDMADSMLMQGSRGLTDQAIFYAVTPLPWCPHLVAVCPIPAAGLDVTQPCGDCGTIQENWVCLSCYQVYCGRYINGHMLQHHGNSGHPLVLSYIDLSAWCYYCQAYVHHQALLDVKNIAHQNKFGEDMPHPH

Sequence of HDAC1 (Q13547 whole entry): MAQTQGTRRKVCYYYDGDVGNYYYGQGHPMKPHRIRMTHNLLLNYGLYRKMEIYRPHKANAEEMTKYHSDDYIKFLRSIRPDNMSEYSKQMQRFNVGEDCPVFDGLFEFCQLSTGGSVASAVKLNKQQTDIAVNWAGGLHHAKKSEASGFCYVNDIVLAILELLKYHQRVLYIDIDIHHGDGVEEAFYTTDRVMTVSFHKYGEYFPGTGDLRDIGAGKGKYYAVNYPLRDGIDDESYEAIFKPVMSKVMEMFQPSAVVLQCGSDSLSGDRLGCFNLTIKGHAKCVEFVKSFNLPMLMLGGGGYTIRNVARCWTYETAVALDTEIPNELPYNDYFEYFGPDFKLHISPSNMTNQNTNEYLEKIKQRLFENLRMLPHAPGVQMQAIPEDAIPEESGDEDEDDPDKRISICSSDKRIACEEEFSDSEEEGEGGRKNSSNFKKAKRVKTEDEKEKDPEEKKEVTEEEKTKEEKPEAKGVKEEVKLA

IC50 (HDAC1) [nM]	IC50 (HDAC6 human recombinant) [nM]	SMILES
> 10000	59	CC1(C)C(=O)N(Cc2ccc(-c3nnc(C(F)F)o3)cn2)C(=O)c2cc(-c3cccc4[nH]ccc34)ccc21 [Compound 115, 2-((5-(5-(difluoromethyl)-1,3,4-oxadiazole-2-yl)pyridine-2-yl)methyl)-7-(1H-indole-4-yl)-4,4-dimethylisoquinoline-1,3(2H,4H)-dione]
> 10000	100	CC1(C)C(=O)N(Cc2ccc(-c3nnc(C(F)F)o3)cn2)C(=O)c2cc(C3CCN(CC(F)(F)F)CC3)ccc21 [Compound 135, 2-((5-(5-(difluoromethyl)-1,3,4-oxadiazole-2-yl)pyridine-2-yl)methyl)-4,4-dimethyl-7-(1-(2,2,2-trifluoroethyl)piperidine-4-yl)isoquinoline-1,3(2H,4H)-dione]
> 10000	30	CCCN1CCN(c2ccc3c(c2)C(=O)N(Cc2ccc(-c4nnc(C(F)F)o4)cn2)C(=O)C3(C)C)CC1 [Compound 130, 2-((5-(5-(difluoromethyl)-1,3,4-oxadiazole-2-yl)pyridine-2-yl)methyl)-4,4-dimethyl-7-(4-propylpiperazine-1-yl) isoquinoline-1,3(2H,4H)-dione]
> 10000	211	CC1(C)C(=O)N(Cc2ccc(-c3nnc(C(F)F)o3)cn2)C(=O)c2cc(-c3cccc(F)c3)ccc21 [Compound 108, 2-((5-(5-(difluoromethyl)-1,3,4-oxadiazole-2-yl)pyridine-2-yl)methyl)-7-(3-fluorophenyl)-4,4-dimethylisoquinoline-1,3(2H,4H)-dione]
> 10000	40	O=c1c2ccccc2n(Cc2ccc(-c3nnc(C(F)F)o3)cn2)c(=O)n1Cc1ccc(-c2nnc(C(F)F)o2)cn1 [Compound 78, 1,3-bis((5-(5-(difluoromethyl)-1,3,4-oxadiazole-2-yl)pyridine-2-yl)methyl)quinazoline-2,4(1H,3H)-dione]
> 10000	113	CC(C)(C)OC(=O)N1CCN(c2ccc3c(c2)C(C)(C)C(=O)N(Cc2ccc(-c4nnc(C(F)F)o4)cn2)C3=O)CC12CC2 [Compound 79, tert-butyl 7-(2-((5-(5-(difluoromethyl)-1,3,4-oxadiazole-2-yl)pyridine-2-yl)methyl)-4,4-dimethyl-1,3-dioxo-1,2,3,4-tetrahydroisoquinoline-6-yl)-4,7-diazaspiro[2.5]octane-4-carboxylate]
> 10000	368	COCCn1c(=O)c2ccccc2n(Cc2ccc(-c3nnc(C(F)F)o3)cc2)c1=O [Compound 75, 1-(4-(5-(difluoromethyl)-1,3,4-oxadiazole-2-yl)benzyl)-3-(2-methoxyethyl)quinazoline-2,4(1H,3H)-dione]
> 10000	55	CCC1(CC)C(=O)N(Cc2ccc(-c3nnc(C(F)F)o3)cn2)C(=O)c2ccc(N3CCN(C(C)=O)CC3)cc21 [Compound 136, 6-(4-acetylpiperazine-1-yl)-2-((5-(5-(difluoromethyl)-1,3,4-oxadiazole-2-yl)pyridine-2-yl)methyl)-4,4-diethylisoquinoline-1,3(2H,4H)-dione]
> 10000	107	CC1(C)C(=O)N(Cc2ccc(-c3nnc(C(F)F)o3)cn2)C(=O)c2cc(-c3ccccc3F)ccc21 [Compound 109, 2-((5-(5-(difluoromethyl)-1,3,4-oxadiazole-2-yl)pyridine-2-yl)methyl)-7-(2-fluorophenyl)-4,4-dimethylisoquinoline-1,3(2H,4H)-dione]

The remaining lines, values behind:

SMILES	IC50 (HDAC1) [nM]	IC50 (HDAC6 human recombinant) [nM]
CC1(C)C(=O)N(Cc2ccc(-c3nnc(C(F)F)o3)cn2)C(=O)c2ccc(N3CCN(C4CC4)CC3)cc21 [Compound 47, 6-(4-cyclopropylpiperazine-1-yl)-2-((5-(5-(difluoromethyl)-1,3,4-oxadiazole-2-yl)pyridine-2-yl)methyl)-4,4-dimethylisoquinoline-1,3(2H,4H)-dione]	> 10000	49
CC1(C)C(=O)N(Cc2ccc(-c3nnc(C(F)F)o3)cn2)C(=O)c2ccc(N3CC(F)(F)C3)cc21 [Compound 49, 6-(3,3-difluoroazetidine-1-yl)-2-((5-(5-(difluoromethyl)-1,3,4-oxadiazole-2-yl)pyridine-2-yl)methyl)-4,4-dimethylisoquinoline-1,3(2H,4H)-dione]	> 10000	41
CC1(C)C(=O)N(Cc2ccc(-c3nnc(C(F)F)o3)cn2)C(=O)c2ccc(N3CCN(C4COC4)CC3)cc21 [Compound 30, 2-((5-(5-(difluoromethyl)-1,3,4-oxadiazole-2-yl)pyridine-2-yl)methyl)-4,4-dimethyl-6-(4-(oxetan-3-yl)piperazine-1-yl)isoquinoline-1,3(2H,4H)-dione]	> 10000	46
CN1CCC(Cn2c(=O)n(Cc3ccc(-c4nnc(C(F)F)o4)cn3)c(=O)c3cc(F)ccc32)CC1 [Compound 73, 3-((5-(5-(difluoromethyl)-1,3,4-oxadiazole-2-yl)pyridine-2-yl)methyl)-6-fluoro-1-((1-methylpiperidine-4-yl)methyl)quinazoline-2,4(1H,3H)-dione]	> 10000	98
Cn1c(=O)n(Cc2ccc(-c3nnc(C(F)F)o3)cn2)c(=O)c2ccc(C3=CCNCC3)cc21 [Compound 122, 3-((5-(5-(difluoromethyl)-1,3,4-oxadiazole-2-yl)pyridine-2-yl)methyl)-1-methyl-7-(1,2,3,6-tetrahydropyridine-4-yl)quinazoline-2,4(1H,3H)-dione]	> 10000	23
O=c1c2ccccc2n(CC2CCN(C3COC3)CC2)c(=O)n1Cc1ccc(-c2nnc(C(F)F)o2)cn1 [Compound 16, 3-((5-(5-(difluoromethyl)-1,3,4-oxadiazole-2-yl)pyridine-2-yl)methyl)-1-((1-(oxetan-3-yl)piperidine-4-yl)methyl)quinazoline-2,4(1H,3H)-dione]	> 10000	257
CC(C)(C)OC(=O)N1CC=C(c2ccc3c(c2)C(=O)N(Cc2ccc(-c4nnc(C(F)F)o4)cn2)C(=O)C3(C)C)CC1 [Compound 53, tert-butyl 4-(2-((5-(5-(difluoromethyl)-1,3,4-oxadiazole-2-yl)pyridine-2-yl)methyl)-4,4-dimethyl-1,3-dioxo-1,2,3,4-tetrahydroisoquinoline-7-yl)-3,6-dihydropyridine-1(2H)-carboxylate]	> 10000	427
CN1CCC(c2ccc3c(c2)C(=O)N(Cc2ccc(-c4nnc(C(F)F)o4)cn2)C(=O)C3(C)C)CC1 [Compound 54, 2-((5-(5-(difluoromethyl)-1,3,4-oxadiazole-2-yl)pyridine-2-yl)methyl)-4,4-dimethyl-7-(1-methylpiperidine-4-yl)isoquinoline-1,3(2H,4H)-dione]	> 10000	42
Cn1c(=O)n(Cc2ccc(-c3nnc(C(F)F)o3)cn2)c(=O)c2ccccc21 [Compound 18, 3-((5-(5-(difluoromethyl)-1,3,4-oxadiazole-2-yl)pyridine-2-yl)methyl)-1-methylquinazoline-2,4(1H,3H)-dione]	> 10000	132
O=c1[nH]c2ccccc2c(=O)n1Cc1ccc(-c2nnc(C(F)F)o2)cn1 [Compound 14, 3-((5-(5-(difluoromethyl)-1,3,4-oxadiazole-2-yl)pyridine-2-yl)methyl)quinazoline-2,4(1H,3H)-dione]	> 10000	53
